In patent publication US11946059B2, “In vivo generation of water-soluble cannabinoids in plant cell suspension cultures” (Trait Biosciences Inc., priority 2017, dated 2024):

Test: Cannabinoid stability in solution (time course incubation)
Type: physicochemical
Details: room temperature, shielded from light
Procedure: Rather, levels increased slightly in all treatments. The absence of any residual UGTs were cross-check and confirmed as the samples were purified by SPE, washed and eluted in 30% and 65%-100% ethanol, respectively.
Materials and Methods Example 19: Cannabinoid Stability in Solution.
The present inventors generated a stock solution of the CBD/CBDA+glycosides mixture in water which was further diluted 10× in all treatment solutions. A 10 mL starting volume was used for all treatments, and all treatments were prepared in triplicate. […] Each sample was incubated at room temperature. Samples were stored in 15 mL polypropylene centrifuge tubes. All samples were shielded from light—tubes were wrapped in aluminum foil. Each sample was prepared in triplicate in the following buffers: water only; pH=3; pH=4; pH=7; pH=8; water only+10 mM ascorbic acid; pH=3+10 mM ascorbic acid; pH=4+10 mM ascorbic acid; pH=7+10 mM ascorbic acid; and pH=8+10 mM ascorbic acid.

[1] = Water + AA (10 mM ascorbic acid)
[2] = pH = 3 + AA (10 mM ascorbic acid)
[3] = pH = 4 + AA (10 mM ascorbic acid)
[4] = pH = 7 + AA (10 mM ascorbic acid)
[5] = pH = 8 + AA (10 mM ascorbic acid)

With `C=C(C)[C@@H]1CCC(C)=C[C@H]1c1c(O)cc(CCCCC)cc1O` [CBD, cannabidiol, reference compound] as the compound, how does the “Day 0 concentration in solution” value [1] read?
Its value is 561.85 ± 86.83 µg/mL.

What about the “Day 0 concentration in solution” value (Water) of the same compound?
The value was 399.81 ± 111.06 µg/mL.

And the “Day 0 concentration in solution” value [2]?
Its value is 565.75 ± 40.96 µg/mL.

And the “Day 0 concentration in solution” value (pH = 3)?
Its value is 568.71 ± 115.90 µg/mL.

And the “Day 0 concentration in solution” value [3]?
Its value is 524.40 ± 34.95 µg/mL.

What about the “Day 0 concentration in solution” value (pH = 4) of the same compound?
Its value is 505.97 ± 5.10 µg/mL.

What about the “Day 0 concentration in solution” value [4] of the same compound?
The value was 500.03 ± 21.45 µg/mL.

What about the “Day 0 concentration in solution” value (pH = 7) of the same compound?
The value was 528.04 ± 91.17 µg/mL.

And the “Day 0 concentration in solution” value [5]?
The value was 1136.36 ± 996.36 µg/mL.

What about the “Day 0 concentration in solution” value (pH = 8) of the same compound?
Its value is 513.35 ± 39.23 µg/mL.

What about the “Day 1 concentration in solution” value [1] of the same compound?
The value was 428.63 ± 198.77 µg/mL.

And the “Day 1 concentration in solution” value (Water)?
Its value is 629.00 ± 383.79 µg/mL.

And the “Day 1 concentration in solution” value [2]?
Its value is 650.49 ± 12.10 µg/mL.

And the “Day 1 concentration in solution” value (pH = 3)?
The value was 713.93 ± 41.47 µg/mL.

What about the “Day 1 concentration in solution” value [3] of the same compound?
Its value is 406.17 ± 210.69 µg/mL.

And the “Day 1 concentration in solution” value (pH = 4)?
Its value is 380.77 ± 233.10 µg/mL.

And the “Day 1 concentration in solution” value [4]?
Its value is 505.88 ± 276.58 µg/mL.

What about the “Day 1 concentration in solution” value (pH = 7) of the same compound?
Its value is 880.54 ± 5.87 µg/mL.

And the “Day 1 concentration in solution” value [5]?
The value was 291.15 ± 78.65 µg/mL.

What about the “Day 1 concentration in solution” value (pH = 8) of the same compound?
Its value is 747.61 ± 101.87 µg/mL.

What about the “Day 4 concentration in solution” value [1] of the same compound?
Its value is 182.66 ± 25.03 µg/mL.

What about the “Day 4 concentration in solution” value (Water) of the same compound?
The value was 432.54 ± 251.39 µg/mL.

What about the “Day 4 concentration in solution” value [2] of the same compound?
The value was 232.39 ± 113.88 µg/mL.

And the “Day 4 concentration in solution” value (pH = 3)?
The value was 191.94 ± 55.68 µg/mL.

What about the “Day 4 concentration in solution” value [3] of the same compound?
Its value is 305.20 ± 97.35 µg/mL.

And the “Day 4 concentration in solution” value (pH = 4)?
Its value is 278.33 ± 85.33 µg/mL.

And the “Day 4 concentration in solution” value [4]?
Its value is 398.16 ± 391.86 µg/mL.

And the “Day 4 concentration in solution” value (pH = 7)?
The value was 539.55 ± 260.69 µg/mL.

And the “Day 4 concentration in solution” value [5]?
The value was 173.43 ± 17.53 µg/mL.

And the “Day 4 concentration in solution” value (pH = 8)?
Its value is 560.90 ± 69.27 µg/mL.

And the “Day 5 concentration in solution” value [1]?
Its value is 448.64 ± 33.51 µg/mL.

What about the “Day 5 concentration in solution” value (Water) of the same compound?
Its value is 466.09 ± 130.53 µg/mL.

What about the “Day 5 concentration in solution” value [2] of the same compound?
Its value is 320.48 ± 92.87 µg/mL.

And the “Day 5 concentration in solution” value (pH = 3)?
Its value is 330.79 ± 138.28 µg/mL.

What about the “Day 5 concentration in solution” value [3] of the same compound?
Its value is 366.65 ± 92.35 µg/mL.

What about the “Day 5 concentration in solution” value (pH = 4) of the same compound?
Its value is 510.50 ± 76.06 µg/mL.

What about the “Day 5 concentration in solution” value [4] of the same compound?
Its value is 353.25 ± 135.11 µg/mL.

And the “Day 5 concentration in solution” value (pH = 7)?
Its value is 593.92 ± 6.30 µg/mL.

And the “Day 5 concentration in solution” value [5]?
The value was 287.24 ± 39.56 µg/mL.

What about the “Day 5 concentration in solution” value (pH = 8) of the same compound?
Its value is 498.21 ± 92.88 µg/mL.

What about the “Day 6 concentration in solution” value [1] of the same compound?
The value was 957.17 ± 315.70 µg/mL.

What about the “Day 6 concentration in solution” value (Water) of the same compound?
Its value is 179.13 ± 17.88 µg/mL.

And the “Day 6 concentration in solution” value [2]?
Its value is 801.14 ± 230.88 µg/mL.

What about the “Day 6 concentration in solution” value (pH = 3) of the same compound?
The value was 607.98 ± 416.07 µg/mL.

And the “Day 6 concentration in solution” value [3]?
Its value is 777.26 ± 56.02 µg/mL.

What about the “Day 6 concentration in solution” value (pH = 4) of the same compound?
Its value is 897.52 ± 65.92 µg/mL.

What about the “Day 6 concentration in solution” value [4] of the same compound?
The value was 828.02 ± 269.38 µg/mL.

What about the “Day 6 concentration in solution” value (pH = 7) of the same compound?
Its value is 1115.01 ± 169.64 µg/mL.

And the “Day 6 concentration in solution” value [5]?
The value was 847.26 ± 88.56 µg/mL.

And the “Day 6 concentration in solution” value (pH = 8)?
The value was 911.61 ± 84.17 µg/mL.

And the “Day 7 concentration in solution” value [1]?
Its value is 592.44 ± 87.97 µg/mL.

And the “Day 7 concentration in solution” value (Water)?
Its value is 680.13 ± 229.24 µg/mL.

What about the “Day 7 concentration in solution” value [2] of the same compound?
Its value is 464.35 ± 105.43 µg/mL.

And the “Day 7 concentration in solution” value (pH = 3)?
Its value is 563.80 ± 65.50 µg/mL.

And the “Day 7 concentration in solution” value [3]?
Its value is 557.34 ± 60.39 µg/mL.

And the “Day 7 concentration in solution” value (pH = 4)?
Its value is 641.86 ± 33.49 µg/mL.

What about the “Day 7 concentration in solution” value [4] of the same compound?
Its value is 549.93 ± 39.69 µg/mL.

And the “Day 7 concentration in solution” value (pH = 7)?
The value was 544.28 ± 57.97 µg/mL.

What about the “Day 7 concentration in solution” value [5] of the same compound?
Its value is 630.99 ± 2.44 µg/mL.

And the “Day 7 concentration in solution” value (pH = 8)?
Its value is 580.54 ± 94.41 µg/mL.
